Laboratory results from patent publication US12629374B2, “Antimalarial agents” (Merck Sharp & Dohme LLC, priority 2020, dated 2026).

The compounds below were run on ring stage parasites (assay: Parasite growth potency assay, 72 hours, LDH readout). Settings: 72 h, parasite growth measured by LDH assay after 72 hours at 37° C.; 0.7% rings, 2% haematocrit; read-out: EC50.
Format: cell-based
Method in brief: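 Parasite growth was quantified by LDH assay after a −80 °C freeze-thaw. Before that, compound was incubated for 72 h at 37 °C under humidified gas with ring-stage cultures adjusted to 0.7% parasitemia and 2% haematocrit in serum- and albumax-supplemented RPMI-Hepes.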

SMILES | EC50 [nM]
CCC1(CC)CC(=O)N(Cc2cccc(C(=O)N[C@@H]3c4cc(F)ccc4OC(C)(C)[C@H]3O)c2)C(=N)N1 (stereo in doubt) [Example 147, [4,4-diethyl-1-[[3-[(6-fluoro-3-hydroxy-2,2-dimethyl-chroman-4-yl)carbamoyl]phenyl]methyl]-6-oxo-hexahydropyrimidin-2-ylidene]ammonium; 2,2,2-trifluoroacetate] | 1
CCC1(CC)CC(=O)N(Cc2cc(F)cc(C(=O)N[C@@H]3c4cc(F)ccc4OC(C)(C)[C@H]3O)c2)C(=N)N1 (stereo in doubt) [Example 148, [4,4-diethyl-1-[[3-fluoro-5-[(6-fluoro-3-hydroxy-2,2-dimethyl-chroman-4-yl)carbamoyl]phenyl]methyl]-6-oxo-hexahydropyrimidin-2-ylidene]ammonium; 2,2,2-trifluoroacetate] | 1
CCC1(CC)CC(=O)N(Cc2cccc(C(=O)N[C@@H]3c4ccccc4OC(C)(C)C3(C)O)c2)C(=N)N1 (stereo in doubt) [Example 184, 3-[(4,4-diethyl-2-imino-6-oxo-hexahydropyrimidin-1-yl)methyl]-N-(3-hydroxy-2,2,3-trimethyl-chroman-4-yl)benzamide] | 1.5
CC1(C)CC(=O)N(Cc2cccc(C(=O)N[C@@H]3c4ccccc4OC(C)(C)C3(C)O)c2)C(=N)N1 (stereo in doubt) [Example 185, N-(3-hydroxy-2,2,3-trimethyl-chroman-4-yl)-3-[(2-imino-4,4-dimethyl-6-oxo-hexahydropyrimidin-1-yl)methyl]benzamide] | 62.5
CCC1(CC)CC(=O)N(Cc2cccc(C(=O)N[C@@H]3c4ccccc4OC3(C)C)c2)C(=N)N1 (stereo in doubt) [Example 186, [1-[[3-[(2,2-dimethyl-3H-benzofuran-3-yl)carbamoyl]phenyl]methyl]-4,4-diethyl-6-oxo-hexahydropyrimidin-2-ylidene]ammonium; 2,2,2-trifluoroacetate] | 10.9
CCC1(CC)CC(=O)N(Cc2cccc(C(=O)N[C@@H]3c4ccccc4C(F)(F)C3O)c2)C(=N)N1 (stereo in doubt) [Example 190, [1-[[3-[(3,3-difluoro-2-hydroxy-indan-1-yl)carbamoyl]phenyl]methyl]-4,4-diethyl-6-oxo-hexahydropyrimidin-2-ylidene]ammonium; 2,2,2-trifluoroacetate] | 6.6
CC1(C)CC(=O)N(Cc2cc(F)cc(C(=O)N[C@@H]3c4cc(F)ccc4OC(C)(C)[C@H]3O)c2)C(=N)N1 (stereo in doubt) [Example 197, [1-[[3-fluoro-5-[(6-fluoro-3-hydroxy-2,2-dimethyl-chroman-4-yl)carbamoyl]phenyl]methyl]-4,4-dimethyl-6-oxo-hexahydropyrimidin-2-ylidene]ammonium; 2,2,2-trifluoroacetate] | 3.4
CCC1(CC)CC(=O)N(Cc2cccc(C(=O)N[C@@H]3c4cc(F)ccc4C[C@H]3O)c2)C(=N)N1 (stereo in doubt) [Example 199, [4,4-diethyl-1-[[3-[(6-fluoro-2-hydroxy-indan-1-yl)carbamoyl]phenyl]methyl]-6-oxo-hexahydropyrimidin-2-ylidene]ammonium; 2,2,2-trifluoroacetate] | 6.2
C#CCC[C@H](c1cccc(C(=O)NC2CC3(CCC3)Oc3ccccc32)c1)N1C(=N)NC(CC)(CC)CC1=O (stereo in doubt) [Example 211A, [4,4-diethyl-6-oxo-1-[(1R)-1-[3-[[(4S)-spiro[chromane-2,1′-cyclobutane]-4-yl]carbamoyl]phenyl]pent-4-ynyl]hexahydropyrimidin-2-ylidene]ammonium; 2,2,2-trifluoroacetate] | 25
CCC[C@H](c1cccc(C(=O)N[C@@H]2CC3(CCC3)Oc3ccccc32)c1)N1C(=N)NC(CC)(CC)CC1=O (stereo in doubt) [Example 212A, [4,4-diethyl-6-oxo-1-[(1R)-1-[3-[[(4S)-spiro[chromane-2,1′-cyclobutane]-4-yl]carbamoyl]phenyl]butyl]hexahydropyrimidin-2-ylidene]ammonium; 2,2,2-trifluoroacetate] | 8
CCC[C@H](c1cccc(C(=O)N[C@H]2CC3(CCC3)Oc3ccccc32)c1)N1C(=N)NC(CC)(CC)CC1=O (stereo in doubt) [Example 212B, [4,4-diethyl-6-oxo-1-[(1R)-1-[3-[[(4R)-spiro[chromane-2,1′-cyclobutane]-4-yl]carbamoyl]phenyl]butyl]hexahydropyrimidin-2-ylidene]ammonium; 2,2,2-trifluoroacetate] | 0.9
CCC1(CC)CC(=O)N(Cc2cccc(C(=O)N[C@H]3CCOc4ccc(Cl)cc43)c2)C(=N)N1 (stereo in doubt) [Example 215B, N-(6-chlorochroman-4-yl)-3-[(4,4-diethyl-2-imino-6-oxo-hexahydropyrimidin-1-yl)methyl]benzamide] | 3.7
CCC1(CC)CC(=O)N(Cc2cccc(C(=O)N[C@@H]3c4ccccc4OCC3(C)C)c2)C(=N)N1 (stereo in doubt) [Example 216, 3-[(4,4-diethyl-2-imino-6-oxo-hexahydropyrimidin-1-yl)methyl]-N-(3,3-dimethylchroman-4-yl)benzamide] | 0.5
CCC1(CC)CC(=O)N(Cc2cccc(C(=O)N[C@H]3CCOc4ccc(C)cc43)c2)C(=N)N1 (stereo in doubt) [Example 217, 3-[(4,4-diethyl-2-imino-6-oxo-hexahydropyrimidin-1-yl)methyl]-N-(6-methylchroman-4-yl)benzamide] | 10
CCC1(CC)CC(=O)N(Cc2cccc(C(=O)N[C@H]3CCOc4ccc(Br)cc43)c2)C(=N)N1 (stereo in doubt) [Example 219, [1-[[3-[(6-bromochroman-4-yl)carbamoyl]phenyl]methyl]-4,4-diethyl-6-oxo-hexahydropyrimidin-2-ylidene]ammonium; 2,2,2-trifluoroacetate] | 6.6
CCC1(CC)CC(=O)N([C@H](CCOC)c2cc(F)cc(C(=O)NC3CCCOc4ccccc43)c2)C(=N)N1 (stereo in doubt) [Example 220, [4,4-diethyl-1-[1-[3-fluoro-5-(2,3,4,5-tetrahydro-1-benzoxepin-5-ylcarbamoyl)phenyl]-3-methoxy-propyl]-6-oxo-hexahydropyrimidin-2-ylidene]ammonium; 2,2,2-trifluoroacetate] | 2.4
C#CCCC(c1cccc(C(=O)N[C@@H]2c3ccccc3C[C@H]2O)c1)N1C(=N)NC(CC)(CC)CC1=O (stereo in doubt) [Example 221, 3-[(1S)-1-(4,4-diethyl-2-imino-6-oxo-hexahydropyrimidin-1-yl)pent-4-ynyl]-N-[(1R,2R)-2-hydroxyindan-1-yl]benzamide] | 35.4
CCC1(CC)CC(=O)N(Cc2cccc(C(=O)N[C@@H]3c4ccccc4OC(C)(C)[C@H]3O)c2)C(=N)N1 [Example 1, 3-((4,4-diethyl-2-imino-6-oxotetrahydropyrimidin-1(2H)-yl)methyl)-N-((3S,4R)-3-hydroxy-2,2-dimethylchroman-4-yl)benzamide] | 0.8

Same assay, conditions: parasite growth measured by LDH assay after 72 hours at 37° C.; 0.7% rings, 2% haematocrit; read-out: EC50

SMILES | EC50 [nM]
CCC1(CC)CC(=O)N([C@H](CCOC)c2cc(F)cc(C(=O)N[C@@H]3c4ccccc4CC3(C)O)c2)C(=N)N1 (stereo in doubt) [Example 144D, 3-[1-(4,4-diethyl-2-imino-6-oxo-hexahydropyrimidin-1-yl)-3-methoxy-propyl]-5-fluoro-N-(2-hydroxy-2-methyl-indan-1-yl)benzamide] | 0.9

Same assay, conditions: parasite growth measured by LDH assay after 72 hours at 37° C.; 0.7% rings, 2% haematocrit; trifluoroacetate; read-out: EC50

SMILES | EC50 [nM]
CCC1(CC)CC(=O)N(Cc2cccc(C(=O)N[C@@H]3c4ccccc4OC3(C)CO)c2)C(=N)N1 (stereo in doubt) [Example 187A, [4,4-diethyl-1-[[3-[[2-(hydroxymethyl)-2-methyl-3H-benzofuran-3-yl]carbamoyl]phenyl]methyl]-6-oxo-hexahydropyrimidin-2-ylidene]ammonium; 2,2,2-trifluoroacetate] | 54.2
CCC1(CC)CC(=O)N(Cc2cccc(C(=O)N[C@@H]3c4ccccc4OC3(C)CO)c2)C(=N)N1 (stereo in doubt) [Example 187B, [4,4-diethyl-1-[[3-[[2-(hydroxymethyl)-2-methyl-3H-benzofuran-3-yl]carbamoyl]phenyl]methyl]-6-oxo-hexahydropyrimidin-2-ylidene]ammonium; 2,2,2-trifluoroacetate] | 19.3
C#CCC[C@H](c1cccc(C(=O)NC2CC3(CCC3)Oc3ccccc32)c1)N1C(=N)NC(CC)(CC)CC1=O (stereo in doubt) [Example 211B, [4,4-diethyl-6-oxo-1-[(1R)-1-[3-[[(4R)-spiro[chromane-2,1′-cyclobutane]-4-yl]carbamoyl]phenyl]pent-4-ynyl]hexahydropyrimidin-2-ylidene]ammonium; 2,2,2-trifluoroacetate] | 0.5
C#CCC[C@@H](c1cccc(C(=O)N[C@@H]2CC3(CCC3)Oc3ccccc32)c1)N1C(=N)NC(CC)(CC)CC1=O (stereo in doubt) [Example 213, [4,4-diethyl-6-oxo-1-[(S)-1-[3-[[(4R)-spiro[chromane-2,1′-cyclobutane]-4-yl]carbamoyl]phenyl]pent-4-ynyl]hexahydropyrimidin-2-ylidene]ammonium; 2,2,2-trifluoroacetate] | 28.6
CCC1(CC)CC(=O)N(Cc2cccc(C(=O)N[C@H]3CC(c4ccccc4)Oc4ccccc43)c2)C(=N)N1 (stereo in doubt) [Example 218A, [4,4-diethyl-6-oxo-1-[[3-[(2-phenylchroman-4-yl)carbamoyl]phenyl]methyl]hexa-hydropyrimidin-2-ylidene]ammonium; 2,2,2-trifluoroacetate] | 55
CCC1(CC)CC(=O)N(Cc2cccc(C(=O)N[C@H]3CC(c4ccccc4)Oc4ccccc43)c2)C(=N)N1 (stereo in doubt) [Example 218B, [4,4-diethyl-6-oxo-1-[[3-[(2-phenylchroman-4-yl)carbamoyl]phenyl]methyl]hexa-hydropyrimidin-2-ylidene]ammonium; 2,2,2-trifluoroacetate] | 1.1
